Our source for the IC50 values is ChEMBL document CHEMBL1122571, “Design and synthesis of tetrahedral intermediate analogues as potential dihydroorotase inhibitors” (J Med Chem, 1984).

This assay deals with Multifunctional protein CAD (Mus musculus, UniProt B2RQC6). Put plainly: Compound was evaluated for the inhibition of dihydroorotase enzyme from mouse Ehrlich ascites at the concentration of 10 uM and at pH 7.37. The following applies: read-out: I50.
Sequence of Multifunctional protein CAD (B2RQC6 whole entry): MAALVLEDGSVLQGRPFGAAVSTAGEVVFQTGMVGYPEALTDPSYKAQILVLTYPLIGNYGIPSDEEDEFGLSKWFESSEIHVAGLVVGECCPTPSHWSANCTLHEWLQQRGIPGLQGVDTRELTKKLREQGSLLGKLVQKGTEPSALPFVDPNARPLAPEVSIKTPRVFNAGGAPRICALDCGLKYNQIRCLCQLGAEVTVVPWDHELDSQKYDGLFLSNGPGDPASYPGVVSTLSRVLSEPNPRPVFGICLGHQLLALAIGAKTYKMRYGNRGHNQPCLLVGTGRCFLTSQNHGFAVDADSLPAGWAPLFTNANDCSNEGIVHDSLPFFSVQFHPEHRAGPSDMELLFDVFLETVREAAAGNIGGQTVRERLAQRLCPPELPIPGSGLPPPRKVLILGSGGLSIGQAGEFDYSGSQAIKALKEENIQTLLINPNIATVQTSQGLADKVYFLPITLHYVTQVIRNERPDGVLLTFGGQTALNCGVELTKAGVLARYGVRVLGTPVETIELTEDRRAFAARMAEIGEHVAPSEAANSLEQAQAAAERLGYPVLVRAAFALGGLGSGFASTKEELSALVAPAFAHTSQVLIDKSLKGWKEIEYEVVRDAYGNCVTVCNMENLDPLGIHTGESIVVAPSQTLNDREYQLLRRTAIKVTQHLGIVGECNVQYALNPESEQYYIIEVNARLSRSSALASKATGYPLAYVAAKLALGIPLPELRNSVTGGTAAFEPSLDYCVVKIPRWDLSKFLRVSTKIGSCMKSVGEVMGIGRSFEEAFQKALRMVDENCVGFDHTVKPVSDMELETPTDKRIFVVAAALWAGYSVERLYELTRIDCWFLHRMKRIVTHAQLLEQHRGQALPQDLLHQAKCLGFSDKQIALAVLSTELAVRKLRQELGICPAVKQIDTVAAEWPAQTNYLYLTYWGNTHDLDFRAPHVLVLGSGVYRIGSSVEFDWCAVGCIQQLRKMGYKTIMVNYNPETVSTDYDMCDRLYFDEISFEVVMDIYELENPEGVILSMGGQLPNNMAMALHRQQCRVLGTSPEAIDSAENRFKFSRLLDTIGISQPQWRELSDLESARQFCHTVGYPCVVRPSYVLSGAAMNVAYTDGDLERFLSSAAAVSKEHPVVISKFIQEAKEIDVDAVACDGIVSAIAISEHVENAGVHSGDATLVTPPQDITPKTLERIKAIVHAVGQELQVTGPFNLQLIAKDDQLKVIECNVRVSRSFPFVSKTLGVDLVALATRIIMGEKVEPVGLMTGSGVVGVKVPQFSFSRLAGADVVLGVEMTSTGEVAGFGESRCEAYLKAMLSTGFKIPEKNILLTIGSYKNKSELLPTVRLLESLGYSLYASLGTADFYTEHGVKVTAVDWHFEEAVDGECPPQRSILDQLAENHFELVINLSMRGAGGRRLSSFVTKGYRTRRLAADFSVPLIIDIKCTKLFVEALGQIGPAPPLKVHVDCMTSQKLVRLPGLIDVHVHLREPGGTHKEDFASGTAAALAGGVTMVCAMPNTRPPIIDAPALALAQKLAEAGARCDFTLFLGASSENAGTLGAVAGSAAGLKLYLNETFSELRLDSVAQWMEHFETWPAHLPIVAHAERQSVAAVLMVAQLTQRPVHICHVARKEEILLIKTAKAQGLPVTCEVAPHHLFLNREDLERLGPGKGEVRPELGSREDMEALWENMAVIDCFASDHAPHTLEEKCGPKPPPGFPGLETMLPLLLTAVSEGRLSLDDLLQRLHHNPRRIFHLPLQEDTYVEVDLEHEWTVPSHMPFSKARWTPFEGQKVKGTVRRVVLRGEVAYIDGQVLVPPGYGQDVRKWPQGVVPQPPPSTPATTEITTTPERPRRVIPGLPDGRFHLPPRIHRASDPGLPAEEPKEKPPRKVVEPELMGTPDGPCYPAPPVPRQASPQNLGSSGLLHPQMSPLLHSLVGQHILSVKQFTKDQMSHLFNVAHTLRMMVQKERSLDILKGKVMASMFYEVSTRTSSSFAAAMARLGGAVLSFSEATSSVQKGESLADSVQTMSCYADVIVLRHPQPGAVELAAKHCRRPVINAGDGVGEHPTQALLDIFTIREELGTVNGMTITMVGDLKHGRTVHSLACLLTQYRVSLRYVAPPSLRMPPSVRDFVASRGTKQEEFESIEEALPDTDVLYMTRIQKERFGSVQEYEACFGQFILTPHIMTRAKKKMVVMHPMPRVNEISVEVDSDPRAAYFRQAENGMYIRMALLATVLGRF
Regarding `O=C1NC(C(=O)O)CS(=O)(=O)N1` (stereo not given), the IC50 amounted to 520 µM.
Regarding `O=C1CSCC(C(=O)O)N1` (stereo not given), the IC50 was less than 1000 µM.
Regarding `C[S+]1([O-])=NC(=O)NC(C(=O)O)C1` (stereo not given), the IC50 was more than 1000 µM.
For `O=C1C[S+]([O-])CC(C(=O)O)N1` (stereo not given) the value was 180 µM; for `NC(=O)NC(CP(=O)(O)O)C(=O)O` (stereo not given), more than 1000 µM.
